Data on seven compounds can be found in US11407729B2, “Quinoline and quinazoline compounds and methods of use thereof” (Stingray Therapeutics, Inc., priority 2019, dated 2022).

Counter-ions that a name gives are not always drawn.

For test [1], the target named is T1, ENPP1 protein (Homo sapiens, UniProt P22413).
T1 sequence (P22413 1-925): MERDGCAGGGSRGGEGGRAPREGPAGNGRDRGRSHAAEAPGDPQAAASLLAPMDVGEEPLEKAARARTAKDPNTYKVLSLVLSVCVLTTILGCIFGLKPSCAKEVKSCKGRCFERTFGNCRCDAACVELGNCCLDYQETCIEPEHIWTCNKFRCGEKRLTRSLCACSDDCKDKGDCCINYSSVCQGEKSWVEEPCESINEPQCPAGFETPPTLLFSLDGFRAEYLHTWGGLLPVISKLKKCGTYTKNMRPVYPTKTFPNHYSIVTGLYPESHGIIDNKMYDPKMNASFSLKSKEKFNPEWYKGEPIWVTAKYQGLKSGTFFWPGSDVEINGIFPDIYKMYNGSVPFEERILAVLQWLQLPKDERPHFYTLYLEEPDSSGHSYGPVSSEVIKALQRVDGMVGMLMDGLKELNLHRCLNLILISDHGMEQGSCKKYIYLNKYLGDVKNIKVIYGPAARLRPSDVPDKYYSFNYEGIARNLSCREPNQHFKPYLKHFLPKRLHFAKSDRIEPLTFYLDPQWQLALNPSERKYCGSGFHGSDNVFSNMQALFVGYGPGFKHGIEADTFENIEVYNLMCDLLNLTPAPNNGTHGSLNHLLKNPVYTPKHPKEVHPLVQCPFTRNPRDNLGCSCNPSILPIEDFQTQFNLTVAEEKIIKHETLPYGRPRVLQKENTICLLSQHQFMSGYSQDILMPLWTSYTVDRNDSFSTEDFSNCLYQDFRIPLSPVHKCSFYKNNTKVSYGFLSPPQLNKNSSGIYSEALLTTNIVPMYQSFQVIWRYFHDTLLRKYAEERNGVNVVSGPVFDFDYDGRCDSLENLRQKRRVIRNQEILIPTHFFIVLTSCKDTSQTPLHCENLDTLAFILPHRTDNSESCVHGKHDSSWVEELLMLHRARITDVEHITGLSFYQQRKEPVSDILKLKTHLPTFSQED
Put plainly: Thermal Shift Binding Assay. To be noted: 1 μg of ENPP1 protein incubated with 100 μM of drug for 5 minutes; for ΔTm at 100 µM: read-out: Thermal Shift (Δ TmD). The method, then:
Thermal Shift Binding Assay.
The Thermal Shift Assays were implemented to study thermal stabilization of ENPP1 proteins upon ENPP1 inhibitor or ligand binding. These assays were used extensively on purified ENPP1 protein. In a 384-well plate, 1 μg of ENPP1 protein was incubated with 100 μM of the corresponding drug for 5 minutes. Each well was exposed to increasing temperatures to determine an unfolding temperature of the protein. […] 2′3′ cGAMP was used as a positive control, as it is a substrate of ENPP1.

Test [2] addresses T1, ENPP1 protein. Briefly: ENPP1 Inhibition Assay. It counts as biochemical. More on the design: purchased R&D 6136-EN-010. The following applies: substrate Thymidine 5′-monophosphate p-nitrophenol ester; 37° C. for 45 minutes; absorbance at 405 nm. The protocol: 1. ENPP1 Inhibition Assay
An eight point serial dilution of drugs was prepared in 10× in assay buffer with the final assay concentrations starting at 10 μM, 3 μM, 1 μM, 0.3 μM . . . 0 μM. A dilution of DMSO was included as a control. The assay plate was set up as follows with each well in duplicate: 81 μL assay buffer+10 μL ENPP1 inhibitor or DMSO+5 μL Substrate+4 μL Enzyme. Both the enzyme and substrate were added to opposite sides of the well to ensure that there was no interaction until all wells had both components. The plate was then centrifuged gently for 10 seconds, followed by an incubation at 37° C. for 45 minutes.
IC50 values are determined using GraphPad Prism 5 software. The data were entered as an X-Y plot into the software as percent inhibition for each concentration of the drug. The concentration values of the drug were log transformed and the nonlinear regression was carried out using the “sigmoidal dose-response (variable slope)” option within the GraphPad software to model the data and calculate IC50 values.

Regarding “N-(2-(1-(6,7-dimethoxyquinazolin-4-yl)piperidin-4-yl)propyl)sulfonamide urea [Compound I-01]”, at ENPP1 protein [1], the “Thermal Shift (Δ TmD)” value is 5.5. In addition, 2.79 nM corresponded to half-maximal inhibition on ENPP1 protein [2] (IC50).
For the compound `COc1ccc(OC)c(S(=O)(=O)Nc2cnc3ccccc3c2)c1` [Compound I-06, 2,5-dimethoxy-N-(quinolin-3-yl)benzenesulfonamide], the ΔTm at 100 µM at ENPP1 protein [1] was determined as 1.6 °C. On ENPP1 protein [2], the half-inhibitory concentration (IC50) (commonly the midpoint of a concentration-inhibition curve) came out at 5150 nM.
The like results for `CCC(CNS(N)(=O)=O)C1CCN(c2ccnc3cc(OC)c(OC)cc23)CC1` (stereo not drawn) [Compound I-13, N-(2-(1-(6,7-dimethoxyquinolin-4-yl)piperidin-4-yl)butyl)sulfuricdiamide] were, in that order, 4 °C and 4.55 nM.
For “N-(2-(1-(6,7-dimethoxyquinolin-4-yl)piperidin-4-yl)propyl)sulfamoylcarbamate [Compound I-02]”, the “Thermal Shift (Δ TmD)” value at ENPP1 protein [1] stood at 5.0. For the same compound, on ENPP1 protein [2], the IC50 is 5.95 nM.
`COCOc1cc2c(N3CCN(C4(CNS(N)(=O)=O)CC4)CC3)ncnc2cc1OC` [Compound I-33, N-((1-(4-(7-methoxy-6-(methoxymethoxy)quinazolin-4-yl)piperazin-1-yl)cyclopropyl)methyl)sulfuricdiamide] yielded an IC50 against ENPP1 protein [2] of 158 nM.
For `COc1cc2nccc(N3CCN(C(C)CNS(N)(=O)=O)CC3)c2cc1OC` (stereo not drawn) [Compound I-20, N-(2-(4-(6,7-dimethoxyquinolin-4-yl)piperazin-1-yl)propyl)aminosulfonamide formate salt], the IC50 on ENPP1 protein [2] amounted to 14 nM.
With `COc1cc2nccc(N3CCC(C(C)CNS(N)(=O)=O)CC3)c2cc1N1CCOCC1` (stereo not drawn) [Compound I-12], the ΔTm at 100 µM at ENPP1 protein [1] is 3.6 °C. This compound also came in with a concentration for half-maximal inhibition (IC50) on ENPP1 protein [2] of 835 nM.
